# Reference: patent US20130005747A1, “METHOD FOR SELECTING A CANCER THERAPY” (Cyclacel Limited, priority 2010, published 2013)
# Legend:
# H1650 = experiment: Cell line IC50 (Table 3); format: cell-based, human; conditions: Lung
# MDA-MB-436 = experiment: Cell line IC50 (Table 3); format: cell-based, human; conditions: Ras WT, Breast
# H2052 = experiment: Cell line IC50 (Table 3); format: cell-based, human; conditions: Mesothelioma
# LoVo = experiment: Cell line IC50 (Table 3); format: cell-based, human; conditions: K-Ras G13D, Colon
# H292 = experiment: Cell line IC50 (Table 3); format: cell-based, human; conditions: Lung
# Colo205 = experiment: Cell line IC50 (Table 3); format: cell-based, human; conditions: Colon
# NCI-H460 = experiment: Cell line IC50 (Table 3); format: cell-based, human; conditions: K-Ras Q61H, Lung
# A549 = experiment: Cell line IC50 (Table 3); format: cell-based, human; conditions: K-Ras G12S, Lung
# MESSA = experiment: Cell line IC50 (Table 3); format: cell-based, human; conditions: Ras WT, sarcoma
# MCF7 = experiment: Cell line IC50 (Table 3); format: cell-based, human; conditions: Ras WT, Breast
# NCI-H929 = experiment: Cell line IC50 (Table 3); format: cell-based, human; conditions: N-Ras, Myeloma
# A2780 = experiment: Cell line IC50 (Table 3); format: cell-based, human; conditions: Ras WT, Ovary
# H358 = experiment: Cell line IC50 (Table 3); format: cell-based, human; conditions: Lung
# cell lines of Table 3 = experiment: Cell line panel of Table 3, summary over cell lines; format: cell-based, human; conditions: median over the cell lines of Table 3
# Saos-2 = experiment: Cell line IC50 (Table 3); format: cell-based; conditions: Homo sapiens, Ras WT, Osteosarcoma
# HT-29 = experiment: Cell line IC50 (Table 3); format: cell-based; conditions: Homo sapiens, Ras WT, Colon
# CDK = CDK inhibitory profile; format: biochemical; conditions: compared with roscovitine
# LP-1 = experiment: Cell line IC50 (Table 3); format: cell-based; conditions: Homo sapiens, Ras WT, Myeloma
# HCT 116 = experiment: Cell line IC50 (Table 3); format: cell-based; conditions: Homo sapiens, K-Ras G13D, Colon
# [1] = Homo sapiens, NCI-H1650, Ras WT
# [2] = Homo sapiens, NCI-H2052, Ras WT
# [3] = Homo sapiens, NCI-H358, K-Ras G12C
Structure (SMILES),IC50 (H1650; [1]) [nM],IC50 (MDA-MB-436; Homo sapiens) [nM],IC50 (H2052; [2]) [nM],IC50 (LoVo; Homo sapiens) [nM],IC50 (Saos-2) [nM],"IC50 (H292; Homo sapiens, NCI-H292, Ras WT) [nM]","IC50 (Colo205; Homo sapiens, COLO 205, Ras WT) [nM]",IC50 (HT-29) [nM],IC50 (NCI-H460; Homo sapiens) [nM],IC50 (A549; Homo sapiens) [nM],"IC50 (MESSA; Homo sapiens, MES-SA) [nM]",IC50 (MCF7; Homo sapiens) [nM],IC50 (NCI-H929; Homo sapiens) [nM],IC50 (A2780; Homo sapiens) [nM],IC50 (H358; [3]) [nM],IC50 (cell lines of Table 3; Homo sapiens) [nM],CDK inhibitory profile (in words) (CDK),IC50 (LP-1) [nM],IC50 (HCT 116) [nM],other results
CC[C@H](Nc1nc(NCc2cnc(C)cc2C)c2ncn(C(C)C)c2n1)[C@@H](C)O [Compound A],,,,,,,,,,,,,,,,,,,,IC50 (H1650; Ras WT): 500 nM; IC50 (MDA-MB-436): 400 nM; IC50 (H2052; Ras WT): 300 nM; IC50 (LoVo): 700 nM; IC50 (H292; Ras WT): 400 nM; IC50 (Colo205; Ras WT): 300 nM; IC50 (NCI-H460): 500 nM; IC50 (A549): 200 nM; IC50 (MESSA): 200 nM; IC50 (MCF7): 300 nM; IC50 (NCI-H929): 400 nM; IC50 (A2780): 400 nM; IC50 (H358; K-Ras G12C): 200 nM; IC50 (cell lines of Table 3): 400 nM
"CC[C@@H](Nc1nc(NCc2cccnc2)c2ncn(C(C)C)c2n1)C(C)(C)O [Compound B, (3R)-3-{9-isopropyl-6-[(pyridin-3-ylmethyl)-amino]-9H-purin-2-ylamino}-2-methyl-pentan-2-ol]",6500,6600,5200,4500,5300,6600,4500,4100,2800,3000,3600,3600,5200,2600,2700,4500,very similar CDK inhibitory profiles to roscovitine,,,
"CC[C@H](Nc1nc(NCc2cccnc2)c2ncn(C(C)C)c2n1)C(C)(C)O [Compound C, (3S)-3-{9-isopropyl-6-[(pyridin-3-ylmethyl)-amino]-9H-purin-2-ylamino}-2-methyl-pentan-2-ol]",3700,3400,2400,2200,2500,2300,2300,1700,2200,1600,1600,1600,2400,1100,800,2200,very similar CDK inhibitory profiles to roscovitine,1600,1600,
"CC[C@H](Nc1nc(NCc2cccnc2)c2ncn(C(C)C)c2n1)[C@@H](C)O [Compound D, (2R,3S)-3-({9-isopropyl-6-[(pyridin-3-ylmethyl)amino]-9H-purin-2-yl}amino)pentan-2-ol]",1200,1000,900,800,1400,900,800,1200,700,500,500,400,800,400,300,800,very similar CDK inhibitory profiles to roscovitine,500,400,
